Laboratory results from patent US20220235030A1, “SELECTIVE HISTAMINE H3 ANTAGONIST ACID ADDITION SALTS AND PROCESS FOR THE PREPARATION THEREOF” (RICHTER GEDEON NYRT., priority 2019, published 2022).
“Also recorded” adds a separate entry of the source. Structures can show the parent of a compound that is named as a salt. Where two headings read alike, the source gives them in different places. One block for each compound: values may come before it.

How the values were obtained:
Assay type in all cases: physicochemical
[1] = Dynamic vapor sorption (DVS) analysis at 25° C., hygroscopicity and deliquescence; parameters: Δm/ΔRH: unit not given beside the values; settings: for Critical Relative Humidity (CRH) / relative humidity above which high, continuous weight gain (deliquescence) is observed: DVS at 25° C.; for Critical Relative Humidity (CRH): RH1 of first sorption step with Δm/ΔRH≥0.5; for Δm/ΔRH / relative humidity above which high, continuous weight gain (deliquescence) is observed: sorption; for Δm/ΔRH / relative weight change: 25° C.; for relative weight change: 95% RH
Description: Determination of the critical relative humidity is feasible by gravimetric method, e.g. with DVS, where relative humidity is changed in suitably selected steps and a sufficiently long time is used to the onset of quasi-equilibrium.
The deliquescence tendency of each salt is characterized by the critical relative humidity (CRH) value (Table 1), which was determined based on the sorption curves measured according to the measurement parameter settings below, with DVS analysis at 25° C. isotherm conditions, according to the following. […]
If the given sorption step is Δm/ΔRH≥0.5, then RH1 is considered to be the critical relative humidity (CRH) value indicating the end point of the physical stability of the substance. The value thus determined is a good match with the onset of a significant monotonic weight gain observed visually on the sorption curve. Above the critical relative humidity value, it is the process of deliquescence of the substance that determines the weight gain observed on the sorption curve.

[2] = Solubility in simulated gastric fluid; settings: simulated gastric fluid (SGF without pepsin, pH=1.3)
Description: The generally observed hygroscopic nature of the 1-[4-(4-{3-[(2R)-2-methyl-pyrrolidin-1-yl]-propoxy}-phenoxy)-piperidin-1-yl]-ethanone salts is inter alia related to the good solubility thereof.

[3] = 10-day solid stress stability study, HPLC purity test; settings: for chemical stability (in words): 10-day solid stress: heat, heat and humidity
Description: Increased stability to ambient humidity is beneficial for longer-term physical and chemical stability of the active ingredient. The relationship between the reduced hygroscopic nature and the increased chemical stability associated with it is shown in the most preferred citrate salts in comparison to the dihydrochloride salt.

[4] = listed as monohydrochloride Form A
[5] = listed as monohydrochloride Form B

- Critical Relative Humidity (CRH) ([1]; dihydrobromide salt): 70%
- Δm/ΔRH ([1]; RH1 0%, dihydrobromide salt): 0.0
- Δm/ΔRH ([1]; RH1 10%, dihydrobromide salt): 0.0
- Δm/ΔRH ([1]; RH1 20%, dihydrobromide salt): 0.0
- Δm/ΔRH ([1]; RH1 30%, dihydrobromide salt): 0.0
- Δm/ΔRH ([1]; RH1 40%, dihydrobromide salt): 0.1
- Δm/ΔRH ([1]; RH1 50%, dihydrobromide salt): 0.1
- Δm/ΔRH ([1]; RH1 60%, dihydrobromide salt): 0.3
- Δm/ΔRH ([1]; RH1 70%, dihydrobromide salt): 3.1
- Δm/ΔRH ([1]; RH1 80%, dihydrobromide salt): 3.3
- relative weight change ([1]; sorption curve, dihydrobromide salt): 90%
- moisture absorbed ([1]; sorption curve, up to 70% RH): about 6%
Structure (SMILES): CC(=O)N1CCC(Oc2ccc(OCCCN3CCC[C@H]3C)cc2)CC1 [diHBr, 1-[4-(4-{3-[(2R)-2-methyl-pyrrolidin-1-yl]-propoxy}-phenoxy)-piperidin-1-yl]-ethanone dihydrobromide salt]

- solubility ([2]; dicitrate salt): 469 mM
- chemical stability (in words) ([3]; dicitrate salt): stable
- All contaminant (area %) ([3]; 10 days, 40° C., 75% RH, open glass, dicitrate salt): 0.24% area %
- All contaminant (area %) ([3]; 10 days, 50° C., 75% RH, open glass, dicitrate salt): 0.25% area %
- All contaminant (area %) ([3]; 10 days, 50° C., sealed glass, dicitrate salt): 0.23% area %
- All contaminant (area %) ([3]; 10 days, 75° C., sealed glass, dicitrate salt): 0.24% area %
- All contaminant (area %) ([3]; starting sample, dicitrate salt): 0.23% area %
- Critical Relative Humidity (CRH) ([1]; dicitrate salt): not deliquescent
- Δm/ΔRH ([1]; RH1 0%, dicitrate salt): 0.0
- Δm/ΔRH ([1]; RH1 10%, dicitrate salt): 0.0
- Δm/ΔRH ([1]; RH1 20%, dicitrate salt): 0.0
- Δm/ΔRH ([1]; RH1 30%, dicitrate salt): 0.0
- Δm/ΔRH ([1]; RH1 40%, dicitrate salt): 0.0
- Δm/ΔRH ([1]; RH1 50%, dicitrate salt): 0.0
- Δm/ΔRH ([1]; RH1 60%, dicitrate salt): 0.0
- Δm/ΔRH ([1]; RH1 70%, dicitrate salt): 0.0
- Δm/ΔRH ([1]; RH1 80%, dicitrate salt): 0.1
- deliquescence (in words) ([1]; above 90% RH, DVS 25° C., dicitrate salt): does not show deliquescence
- hygroscopicity (in words) ([1]; dicitrate salt): poorly hygroscopic
- water bound ([1]; sorption curve, up to 80% RH, dicitrate salt): 3.2%
- water bound ([1]; sorption curve, up to 90% RH): 6.8%
Structure (SMILES): CC(=O)N1CCC(Oc2ccc(OCCCN3CCC[C@H]3C)cc2)CC1 [dicitrate, 1-[4-(4-{3-[(2R)-2-methyl-pyrrolidin-1-yl]-propoxy}-phenoxy)-piperidin-1-yl]-ethanone dicitrate salt]
- deliquescence (in words) ([1]; under the conditions of the DVS analysis, dicitrate salt): do not show deliquescence; also recorded: not deliquescent

- Critical Relative Humidity (CRH) [1]: 40%
- Δm/ΔRH ([1]; RH1 0%): 0.0
- Δm/ΔRH ([1]; RH1 10%): 0.0
- Δm/ΔRH ([1]; RH1 20%): 0.0
- Δm/ΔRH ([1]; RH1 30%): 0.3
- Δm/ΔRH ([1]; RH1 40%): 1.1
- Δm/ΔRH ([1]; RH1 50%): 0.5
- Δm/ΔRH ([1]; RH1 60%): 0.6
- Δm/ΔRH ([1]; RH1 70%): 1.1
- Δm/ΔRH ([1]; RH1 80%): 2.6
- hygroscopicity (in words) [1, 4]: highly hygroscopic
- relative weight change ([1]; sorption curve): 97%
- water bound ([1]; sorption curve, up to 40% RH): about 3%
- relative humidity above which high, continuous weight gain (deliquescence) is observed [1, 4]: above 40%
Structure (SMILES): CC(=O)N1CCC(Oc2ccc(OCCCN3CCC[C@H]3C)cc2)CC1 [monoHCl Form A, 1-[4-(4-{3-[(2R)-2-methyl-pyrrolidin-1-yl]-propoxy}-phenoxy)-piperidin-1-yl]-ethanone monohydrochloride salt Form A]

- Critical Relative Humidity (CRH) [1]: 30%
- Δm/ΔRH ([1]; RH1 0%): 0.0
- Δm/ΔRH ([1]; RH1 10%): 0.0
- Δm/ΔRH ([1]; RH1 20%): 0.0
- Δm/ΔRH ([1]; RH1 30%): 0.6
- Δm/ΔRH ([1]; RH1 40%): 0.7
- Δm/ΔRH ([1]; RH1 50%): 0.4
- Δm/ΔRH ([1]; RH1 60%): 0.6
- Δm/ΔRH ([1]; RH1 70%): 0.9
- Δm/ΔRH ([1]; RH1 80%): 1.5
- hygroscopicity (in words) [1, 5]: highly hygroscopic
- relative weight change ([1]; sorption curve): 61%
- water bound ([1]; sorption curve, up to 30% RH): 0.3%
- relative humidity above which high, continuous weight gain (deliquescence) is observed [1, 5]: above 30%
Structure (SMILES): CC(=O)N1CCC(Oc2ccc(OCCCN3CCC[C@H]3C)cc2)CC1 [monoHCl Form B, 1-[4-(4-{3-[(2R)-2-methyl-pyrrolidin-1-yl]-propoxy}-phenoxy)-piperidin-1-yl]-ethanone monohydrochloride salt Form B]

- solubility [2]: greater than 44 mM
- chemical stability (in words) [3]: stable
- All contaminant (area %) ([3]; 10 days, 40° C., 75% RH, open glass): 0.19% area %
- All contaminant (area %) ([3]; 10 days, 50° C., 75% RH, open glass): 0.19% area %
- All contaminant (area %) ([3]; 10 days, 50° C., sealed glass): 0.20% area %
- All contaminant (area %) ([3]; 10 days, 75° C., sealed glass): 0.19% area %
- All contaminant (area %) ([3]; starting sample): 0.19% area %
- hygroscopicity (in words) [1]: poorly hygroscopic
- Critical Relative Humidity (CRH) [1]: not deliquescent
- Δm/ΔRH ([1]; RH1 0%): 0.0
- Δm/ΔRH ([1]; RH1 10%): 0.0
- Δm/ΔRH ([1]; RH1 20%): 0.2
- Δm/ΔRH ([1]; RH1 30%): 0.1
- Δm/ΔRH ([1]; RH1 40%): 0.0
- Δm/ΔRH ([1]; RH1 50%): 0.0
- Δm/ΔRH ([1]; RH1 60%): 0.0
- Δm/ΔRH ([1]; RH1 70%): 0.0
- Δm/ΔRH ([1]; RH1 80%): 0.0
- deliquescence (in words) ([1]; above 90% RH, DVS 25° C.): did not show deliquescence
- relative humidity at which monohydrate Form A converts to anhydrate Form B ([1]; during desorption): below 10 % RH
- deliquescence (in words) ([1]; under the conditions of the DVS analysis): not deliquescent
- deliquescence (in words) ([1]; under the conditions of the DVS analysis, listed as Monocitrate): do not show deliquescence
Structure (SMILES): CC(=O)N1CCC(Oc2ccc(OCCCN3CCC[C@H]3C)cc2)CC1 [monocitrate, 1-[4-(4-{3-[(2R)-2-methyl-pyrrolidin-1-yl]-propoxy}-phenoxy)-piperidin-1-yl]-ethanone monocitrate salt Form A]

- Critical Relative Humidity (CRH) ([1]; oxalate salt): not deliquescent
- Δm/ΔRH ([1]; RH1 0%, oxalate salt): 0.0
- Δm/ΔRH ([1]; RH1 10%, oxalate salt): 0.1
- Δm/ΔRH ([1]; RH1 20%, oxalate salt): 0.1
- Δm/ΔRH ([1]; RH1 30%, oxalate salt): 0.2
- Δm/ΔRH ([1]; RH1 40%, oxalate salt): 0.1
- Δm/ΔRH ([1]; RH1 50%, oxalate salt): 0.0
- Δm/ΔRH ([1]; RH1 60%, oxalate salt): 0.0
- Δm/ΔRH ([1]; RH1 70%, oxalate salt): 0.0
- Δm/ΔRH ([1]; RH1 80%, oxalate salt): 0.1
- deliquescence (in words) ([1]; above 90% RH, DVS 25° C., oxalate salt): does not even show deliquescence
- relative weight gain relative to the dried weight ([1]; sorption curve, 10-50% RH range, constant up to approx. 70% RH): about 4.7%
- deliquescence (in words) ([1]; under the conditions of the DVS analysis, oxalate salt): not deliquescent
Structure (SMILES): CC(=O)N1CCC(Oc2ccc(OCCCN3CCC[C@H]3C)cc2)CC1 [oxalate, 1-[4-(4-{3-[(2R)-2-methyl-pyrrolidin-1-yl]-propoxy}-phenoxy)-piperidin-1-yl]-ethanone oxalate salt]

- Critical Relative Humidity (CRH) ([1]; sulfate salt): 80%
- Δm/ΔRH ([1]; RH1 0%, sulfate salt): 0.4
- Δm/ΔRH ([1]; RH1 10%, sulfate salt): 0.0
- Δm/ΔRH ([1]; RH1 20%, sulfate salt): 0.0
- Δm/ΔRH ([1]; RH1 30%, sulfate salt): 0.0
- Δm/ΔRH ([1]; RH1 40%, sulfate salt): 0.0
- Δm/ΔRH ([1]; RH1 50%, sulfate salt): 0.0
- Δm/ΔRH ([1]; RH1 60%, sulfate salt): 0.0
- Δm/ΔRH ([1]; RH1 70%, sulfate salt): 0.1
- Δm/ΔRH ([1]; RH1 80%, sulfate salt): 1.6
- relative weight change ([1]; sorption curve, sulfate salt): 53%
- water bound ([1]; sorption curve, up to 80% RH, sulfate salt): about 5%
Structure (SMILES): CC(=O)N1CCC(Oc2ccc(OCCCN3CCC[C@H]3C)cc2)CC1 [sulfate, 1-[4-(4-{3-[(2R)-2-methyl-pyrrolidin-1-yl]-propoxy}-phenoxy)-piperidin-1-yl]-ethanone sulfate salt]
